Laboratory results taken from ChEMBL document CHEMBL4482318, “Sepiapterin reductase inhibitors” (2018).
Activity calls are given as the source filed them.

How the values were obtained:
Type in all cases: functional, organism-based
Rattus norvegicus [1] = assay: Analgesic activity in rat model of chronic constriction injury-induced neuropathic pain assessed as increase in paw withdrawal threshold at 9.5 mg/kg, po administered via gavage once daily for 3 days by Von frey filament test
Rattus norvegicus [2] = assay: Analgesic activity in rat model of spared nerve injury-induced neuropathic pain assessed as increase in paw withdrawal threshold at 20 mg/kg, po administered via gavage once daily for 3 days by Von frey filament test
Rattus norvegicus [3] = assay: Analgesic activity in rat model of chronic constriction injury-induced neuropathic pain assessed as increase in paw withdrawal threshold at 10 mg/kg, po administered via gavage once daily for 3 days by Von frey filament test
Rattus norvegicus [4] = assay: Analgesic activity in rat model of spared nerve injury-induced neuropathic pain assessed as increase in paw withdrawal threshold at 10 mg/kg, po administered via gavage once daily for 3 days by Von frey filament test
Rattus norvegicus [5] = assay: Analgesic activity in rat model of spared nerve injury-induced neuropathic pain assessed as increase in paw withdrawal threshold at 15 mg/kg, po administered via gavage once daily for 3 days by Von frey filament test

`Cc1c(C(=O)N2CCN(C3CC(F)(F)C3)CC2)cnn1-c1nn2cccc2c(=O)[nH]1` was tested, and the Activity (Rattus norvegicus [1]) was “Active”.

With `Cc1c(C(=O)N2CCN(C3CC(F)(F)C3)CC2)nnn1-c1nn2cccc2c(=O)[nH]1` the Activity (Rattus norvegicus [1]) was “Active”.

With `Cc1c(C(=O)N2CCC(c3nc(C#N)co3)CC2)cnn1-c1nn2cccc2c(=O)[nH]1` the Activity (Rattus norvegicus [2]) was “Active”.

For `Cc1c(C(=O)N2CC(c3ccnc(F)c3)C2)cnn1-c1nn2cccc2c(=O)[nH]1`, the Activity (Rattus norvegicus [3]) was “Active”.

With `Cc1c(C(=O)N2CCN(C3CCC3(F)F)CC2)nnn1-c1nn2cccc2c(=O)[nH]1` (configuration not stated) the Activity (Rattus norvegicus [4]) was “Active”.

With `Cc1c(C(=O)N2CC3CC(C2)N3C2CC2)cnn1-c1nn2cccc2c(=O)[nH]1` the Activity (Rattus norvegicus [5]) was “Active”.

`Cc1c(C(=O)N2CCC2c2ccc(F)nc2)cnn1-c1nn2cccc2c(=O)[nH]1` (configuration not stated) was tested, and the Activity (Rattus norvegicus [4]) was “Active”.
